For eight compounds, GI50 and inhibition results are on record in ChEMBL document CHEMBL5625269, “Design, synthesis, and biological evaluation of novel benzo[6,7]indolo[3,4-c]isoquinolines as anticancer agents with topoisomerase I inhibition” (2024).

For one experiment, the system named is MCF7. Nature of the experiment: Growth inhibition of human MCF7 cells assessed as reduction in cell viability. In kind it is functional.
The next experiment relates to U-251. Description: Growth inhibition of human U-251 cells assessed as reduction in cell viability. The format is functional.
For another experiment, the system named is HCT-116. Nature of the experiment: Growth inhibition of human HCT-116 cells assessed as reduction in cell viability. In kind it is functional.
For the next experiment, the system named is A549. Nature of the experiment: Growth inhibition of human A549 cells assessed as reduction in cell viability. The format is functional.
The test system of a further experiment is LOX IMVI. Description: Growth inhibition of human LOX IMVI cells assessed as reduction in cell viability. The format is functional.
Another experiment relates to SK-OV-3. Nature of the experiment: Growth inhibition of human SK-OV-3 cells assessed as reduction in cell viability. The format is functional.
For a further experiment, the system named is ACHN. Nature of the experiment: Growth inhibition of human ACHN cells assessed as reduction in cell viability. In kind it is functional.
The subject of the next experiment is MKN-28. Nature of the experiment: Growth inhibition of human MKN-28 cells assessed as reduction in cell viability. In kind it is functional.
The next experiment relates to DU-145. Description: Growth inhibition of human DU-145 cells assessed as reduction in cell viability. The format is functional.
Experiment [1] has as its target T1, DNA topoisomerase 1 (Homo sapiens) (UniProt P11387).
T1 sequence (whole entry): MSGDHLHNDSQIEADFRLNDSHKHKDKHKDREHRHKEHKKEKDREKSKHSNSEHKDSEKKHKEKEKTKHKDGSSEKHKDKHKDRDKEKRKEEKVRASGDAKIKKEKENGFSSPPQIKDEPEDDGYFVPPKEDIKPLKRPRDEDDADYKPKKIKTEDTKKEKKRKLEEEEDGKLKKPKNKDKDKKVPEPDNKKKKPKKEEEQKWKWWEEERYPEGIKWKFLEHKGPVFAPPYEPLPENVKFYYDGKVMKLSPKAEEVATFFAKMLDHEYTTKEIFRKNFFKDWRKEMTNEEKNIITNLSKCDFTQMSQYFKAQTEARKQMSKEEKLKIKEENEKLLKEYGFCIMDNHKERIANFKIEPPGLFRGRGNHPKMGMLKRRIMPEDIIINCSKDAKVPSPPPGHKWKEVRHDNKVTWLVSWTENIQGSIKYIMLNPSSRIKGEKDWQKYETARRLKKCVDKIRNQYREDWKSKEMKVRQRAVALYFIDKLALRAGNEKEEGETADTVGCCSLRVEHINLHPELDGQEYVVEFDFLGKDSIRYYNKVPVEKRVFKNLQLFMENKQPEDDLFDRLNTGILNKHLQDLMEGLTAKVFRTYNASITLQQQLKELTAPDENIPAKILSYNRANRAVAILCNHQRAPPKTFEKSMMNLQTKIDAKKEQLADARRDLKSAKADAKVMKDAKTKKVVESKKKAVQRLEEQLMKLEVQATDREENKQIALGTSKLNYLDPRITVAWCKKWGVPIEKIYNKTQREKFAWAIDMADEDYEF
Description: Inhibition of human DNA topoisomerase 1 assessed as reduction in pBR322 DNA relaxation at 20 to 100 uM by agarose gel electrophoresis method. The settings on record: dose 20-100 µM.

Experiment [2] has as its target T1, DNA topoisomerase 1 (Homo sapiens). Description: Inhibition of human DNA topoisomerase 1 assessed as reduction in pBR322 DNA relaxation at 20 to 100 uM in presence of ethidium bromide by agarose gel electrophoresis method. The settings on record: dose 20-100 µM.

One may read the GI50 as the concentration giving 50% growth inhibition.

SMILES strings stand for the structures. The source made the active and inactive calls. The rule behind the calls is not given here.

On to `COc1cc2c(cnc3c4ccc5cc(O)ccc5c4n(CCCN4CCOCC4)c23)cc1O`, for which the GI50 is less than 10 nM with MCF7; less than 10 nM in the experiment with U-251; less than 10 nM in the experiment with HCT-116; 49 nM in the experiment on A549; less than 10 nM in the experiment on LOX IMVI; 18 nM with SK-OV-3. Also, the GI50 was less than 10 nM in the experiment on ACHN, 19 nM in the experiment with MKN-28 and less than 10 nM in the experiment on DU-145. The inhibition entry in experiment [1] and in experiment [2] was “Active” each time.
As to `COc1cc2c(cnc3c4ccc5cc(O)ccc5c4n(CCCN4CCC(N5CCCCC5)CC4)c23)cc1O`, the GI50 in the experiment with MCF7 came to 263 nM; in the experiment on U-251, 708 nM; in the experiment with HCT-116 it was 309 nM; in the experiment on A549, 1550 nM; with LOX IMVI it was 363 nM; in the experiment on SK-OV-3, 1820 nM. Besides, the GI50 in the experiment with ACHN came to 1100 nM; in the experiment on MKN-28 it was 562 nM; in the experiment with DU-145 it was 759 nM. In addition, in experiment [1], the inhibition result is “Active”.
Regarding `COc1cc2c(cnc3c4ccc5cc(O)ccc5c4n(C)c23)cc1O`, the GI50 in the experiment on MCF7 is 437 nM; in the experiment with U-251 it was 123 nM; in the experiment on HCT-116, 200 nM; with A549, 631 nM; with LOX IMVI, 178 nM; in the experiment on SK-OV-3, 759 nM. Moreover, the GI50 in the experiment on ACHN is 257 nM; with MKN-28 it was 437 nM; with DU-145, 282 nM.
As to `COc1cc2c(cnc3c4ccc5cc(O)ccc5c4n(CCN(C)C)c23)cc1O`, the GI50 is 13 nM in the experiment with MCF7; less than 10 nM in the experiment on U-251; 65 nM in the experiment with HCT-116; 380 nM with A549; less than 10 nM with LOX IMVI; 380 nM in the experiment with SK-OV-3. Moreover, the GI50 is 20 nM in the experiment with ACHN, 912 nM in the experiment with MKN-28 and less than 10 nM in the experiment on DU-145. For the same compound, the inhibition entry in [1] and in experiment [2] was “Active” throughout.
For the compound `COc1cc2c(cc1O)c[n+]([O-])c1c3ccc4cc(O)ccc4c3n(C)c21`, the GI50 is 66 nM in the experiment on MCF7; 145 nM in the experiment with U-251; 209 nM with HCT-116; 3090 nM in the experiment on A549; 50 nM in the experiment with LOX IMVI; 1440 nM in the experiment on SK-OV-3. In addition, the GI50 came to 37 nM in the experiment on ACHN, 3550 nM with MKN-28 and 62 nM with DU-145. The inhibition entry in [2] was “Active”.
`COc1cc2c(ccc3c4c(=O)oc5cc(O)c(OC)cc5c4n(C)c23)cc1O`: the GI50 with MCF7 is 9.6 nM; with U-251 it was 1.3 nM; with HCT-116, 8.8 nM; in the experiment with A549, 1.8 nM; in the experiment on LOX IMVI, 2.6 nM; in the experiment on SK-OV-3, 9.4 nM. Also, the GI50 with ACHN is less than 1 nM; in the experiment on MKN-28 it was 33 nM; in the experiment on DU-145, 2.5 nM.
As for `COc1cc2c(cnc3c4ccc5cc(O)ccc5c4n(CCCCl)c23)cc1O`, the GI50 is 105 nM in the experiment with MCF7; 26 nM in the experiment with U-251; 115 nM with HCT-116; 447 nM in the experiment on A549; 25 nM in the experiment with LOX IMVI; 537 nM in the experiment on SK-OV-3. For the same compound, the GI50 was 32 nM in the experiment on ACHN, 316 nM with MKN-28 and 32 nM in the experiment with DU-145.
As for `COc1cc2c(cnc3c4ccc5cc(O)ccc5c4n(CCCn4ccnc4)c23)cc1O`, the GI50 with MCF7 came out at 40 nM; in the experiment with U-251 it was 38 nM; in the experiment with HCT-116, 324 nM; in the experiment on A549, 15800 nM; in the experiment on LOX IMVI, 44 nM; in the experiment on SK-OV-3, 9550 nM. The figures for the GI50 in the experiment with ACHN, in the experiment with MKN-28 and with DU-145 were 331 nM, 1950 nM and 141 nM, respectively. For the same compound, the inhibition entry in [2] was “inactive”.
